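Five compound concentrations were applied to cells in 96-well plates for 48 hours; endpoints were derived by simple linear interpolation of the resulting dose-response curve. TGI is the concentration that stops growth completely.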

Holding throughout (test): DTP human tumour cell line panel, 48 h
Experiment [1] relates to A549 NSCLC.
The subject of experiment [2] is SK-MEL-2 melanoma.
Experiment [3] concerns RXF 393 renal.
Experiment [4] deals with UO-31 renal.
Experiment [5] deals with HCC-2998 colon.
The subject of experiment [6] is HCT-15 colon.
The subject of experiment [7] is NCI-H23 lung.
In experiment [8] the test system is SK-OV-3 ovarian.
For experiment [9], the system named is SNB-19 CNS.
Experiment [10] deals with MALME-3M melanoma.
Experiment [11] has as its system OVCAR-8 ovarian.
Experiment [12] deals with UACC-62 melanoma.
Experiment [13] has as its system SNB-75 CNS.
The subject of experiment [14] is HCT-116 colon.
The test system of experiment [15] is SF-295 CNS.
Experiment [16] concerns M14 melanoma.
The subject of experiment [17] is 786-0 renal.
The test system of experiment [18] is HS 578T breast.
Experiment [19] deals with T-47D breast.

On to `CC(C)(C)c1ccc2c(c1)OP1(Oc3c(Cl)cc(Cl)c4cccnc34)(O2)Oc2ccc(C(C)(C)C)cc2O1`, for which the total growth inhibition concentration (TGI) in experiment [1] worked out at 34.6 µM; in experiment [2] it was 22.8 µM; in experiment [3], 30 µM; in experiment [4], 19.6 µM; in [5] it was 23.4 µM; in [6], 19.9 µM. The TGI in experiment [7] turned out to be 21.8 µM; in [8] it was 16.5 µM; in experiment [9], 22.8 µM; in experiment [10] it was 24.9 µM; in experiment [11], 45.8 µM; in experiment [12] it was 21.1 µM. The values for the TGI in experiment [13], in [14] and in experiment [15] were 32.2 µM, 17.4 µM and 32.1 µM, respectively.

As to `COc1ccc(N2C(=O)C3CC(c4ccc(Br)cc4)c4c([nH]c5ccccc45)C3C2=O)cc1` (stereo unspecified), the TGI in experiment [1] is 6.96 µM; in [2] it was above 100 µM; in experiment [16], above 100 µM; in experiment [4] it was 27.1 µM; in [6], above 100 µM; in [7], 28.5 µM. Further, the TGI in [9] came out at 10.5 µM; in experiment [10], 36.7 µM; in experiment [11] it was 5.96 µM; in [12] it was 32.3 µM; in [17], 4.45 µM; in [13] it was 22.5 µM. Besides, the TGI was determined as 16.1 µM in experiment [14] and 24.3 µM in experiment [15].

For the compound `O=S1(=O)c2ccccc2N(O)C2=NCCN21`, the TGI in experiment [1], in experiment [2], in experiment [3], in experiment [16], in experiment [4] and in [5] was above 100 µM each time. Besides, the TGI in experiment [7], in experiment [8], in experiment [9], in [10], in [11] and in experiment [12] was above 100 µM in each case. Further, the TGI in [17], in experiment [13], in experiment [14] and in [15] was above 100 µM throughout.

As to `C=C(/C=C/C=C(\C)CCC=C(C)C)[C@@H]1CC[C@]2([C@H](CCCO)/C(=C(/C)C=O)CC[C@]2(C)O)[C@@H]1O`, the TGI in [1] came to 38.2 µM; in experiment [2], 38.5 µM; in [3], 37.8 µM; in experiment [16] it was 48.2 µM; in experiment [4], 48 µM; in [5] it was 35.6 µM. In addition, the TGI was 34.2 µM in experiment [6]; 45.7 µM in experiment [7]; above 100 µM in [8]; 52.7 µM in [9]; 29.8 µM in experiment [10]; 46.5 µM in experiment [11]. In addition, the TGI was 99.4 µM in experiment [13] and 44 µM in experiment [15].

Turning to `S=P1(Sc2ccccc2)Oc2ccc3ccccc3c2-c2c(ccc3ccccc23)O1`, the TGI in [1], in experiment [2], in experiment [3], in experiment [4], in experiment [5] and in [6] was above 100 µM in each case. Moreover, the TGI in experiment [7], in experiment [8], in experiment [9], in experiment [10], in [11] and in [12] was above 100 µM throughout. Moreover, the TGI in experiment [13], in experiment [14] and in experiment [15] was above 100 µM in each case.

With `COC(=O)C1=CO[C@@H](C)[C@@H]2Cn3ccc4c5ccccc5nc-4c3C[C@H]12`, the TGI in [1], in experiment [2], in experiment [3], in experiment [16], in experiment [4] and in experiment [6] was above 100 µM each time. Also, the concentration for total growth inhibition (TGI) in experiment [7], in experiment [8], in experiment [9], in experiment [10], in experiment [11] and in [12] was above 100 µM in each case. The TGI in experiment [17], in experiment [13], in experiment [14] and in experiment [15] was above 100 µM in each case.

Turning to `O=C1CCCCCCC2=C1C(Sc1ccccc1)CC2` (stereo unspecified), the TGI in [1] is above 100 µM; in experiment [3], 48.6 µM; in [16], above 100 µM; in experiment [4] it was 92.1 µM; in experiment [6], above 100 µM; in experiment [7], above 100 µM. The concentration for total growth inhibition (TGI) in [8] was above 100 µM; in experiment [9], above 100 µM; in experiment [10], above 100 µM; in experiment [11] it was 54 µM; in experiment [12], above 100 µM; in experiment [17], 33 µM. Also, the TGI in [13] was 90.7 µM; in experiment [14] it was 67.8 µM; in [15], above 100 µM.

Regarding `c1ccc2c3c(ccc2c1)-c1[nH]ncc1CCO3`, the TGI in experiment [1] was above 100 µM; in [2], 85.3 µM; in experiment [3] it was above 74.2 µM; in experiment [4] it was 65.2 µM; in experiment [5], above 100 µM; in experiment [6], above 100 µM. In addition, the TGI in experiment [7] is 75.7 µM; in experiment [8] it was above 100 µM; in experiment [9] it was above 100 µM; in experiment [10], above 100 µM; in experiment [11], above 90.1 µM; in experiment [12], above 62.9 µM. Besides, the TGI in experiment [13] is above 74.9 µM; in [14], above 88.5 µM; in [15] it was above 86.1 µM.

Consider `COC(=O)C1=C(C)NC(=O)N2[C@@H](CCOCc3ccccc3)CC[C@@H]12`, for which the TGI in [1], in [2], in [3], in experiment [16], in experiment [18] and in experiment [4] was above 50 µM throughout. Besides, the TGI in experiment [5], in [6], in [7], in experiment [8], in experiment [9] and in experiment [10] was above 50 µM in each case. Moreover, the TGI was above 50 µM in experiment [11]; above 50 µM in experiment [12]; above 50 µM in experiment [17]; above 50 µM in experiment [13]; 49.1 µM in experiment [19]; above 50 µM in experiment [15].

Take `CC(=O)OCc1c(O)c2c([nH]c1=O)CCc1ccccc1-2`: the TGI is above 350 µM in experiment [1]; above 35 µM in experiment [2]; 105 µM in experiment [3]; 197 µM in [5]; 112 µM in experiment [6]; 218 µM in [7]. For the same compound, the TGI was above 350 µM in experiment [8]; above 350 µM in [9]; above 35 µM in experiment [10]; 291 µM in experiment [11]; 119 µM in experiment [12]; 115 µM in experiment [17]. Besides, the figures for the TGI in experiment [14] and in experiment [15] were 110 µM and 274 µM, respectively.

Turning to `CC(C)(C)C1=CC(=N/N=c2\scc(-c3ccccc3)n2-c2ccccc2)C=C(C(C)(C)C)C1=O`, the TGI in [1], in [2], in experiment [3], in experiment [16], in experiment [4] and in experiment [5] was above 100 µM each time. The concentration for total growth inhibition (TGI) in [6], in experiment [7], in [8], in [9], in experiment [10] and in experiment [11] was above 100 µM each time. Further, the TGI in [12], in [17], in experiment [13], in experiment [14] and in [15] was above 100 µM each time.

As to `Fc1cc(C2=Nn3c(COc4ccccc4Cl)nnc3S/C2=C\c2ccc(Cl)cc2)c(Cl)cc1Cl`, the TGI amounted to 32.3 µM in experiment [2]; 28 µM in [3]; 17 µM in [16]; 36.4 µM in experiment [18]; 93.8 µM in experiment [4]; 16.3 µM in experiment [5]. The TGI in experiment [6] is 20.7 µM; in experiment [7] it was 6.33 µM; in [8] it was above 100 µM; in [11], above 100 µM; in experiment [17], 26.5 µM; in experiment [14] it was 26.1 µM. Moreover, the TGI in experiment [19] and in experiment [15] was above 100 µM each time.

On to `CCCCN(CC)C(=O)C(=O)Cc1nc2ccc(C(=O)c3ccccc3)cc2[nH]c1=O`, for which the TGI is above 100 µM in [1]; 92 µM in experiment [3]; above 100 µM in [16]; above 100 µM in experiment [4]; above 100 µM in experiment [6]; above 100 µM in [7]. The concentration for total growth inhibition (TGI) is above 100 µM in experiment [8]; above 100 µM in experiment [9]; above 100 µM in experiment [11]; above 100 µM in [12]; above 100 µM in experiment [17]; above 88.1 µM in [13]. Moreover, the TGI in [14] and in [15] was above 100 µM throughout.

As to `CCCn1cc2c(=O)[nH]c(SC)nc2n1`, the total growth inhibition concentration (TGI) in experiment [1], in experiment [2], in experiment [3], in experiment [16], in experiment [4] and in experiment [5] was above 100 µM throughout. For the same compound, the concentration for total growth inhibition (TGI) in experiment [6], in [7], in [9], in experiment [10], in [11] and in [13] was above 100 µM throughout. The TGI in experiment [14] and in experiment [15] was above 100 µM each time.

The term TGI denotes the concentration at which net growth stops.

These data come from PubChem BioAssay (NCI).
